Laboratory results taken from ChEMBL document CHEMBL1201862, “PubChem BioAssay data set” (2004).
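Where inhibition never reached the appropriate level, the endpoint shown equals the highest concentration tested. Otherwise, values were interpolated linearly from a five-concentration, 48-hour dose response in 96-well plates. Abbreviation: GI50, concentration required for 50% inhibition of growth.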 The source made the active and inactive calls. No stated cut-off is given here; in the data, active = GI50 up to about 1.1 µM and inactive = higher.

Columns and labels:
Assay in all cases: NCI-60 cell line screen, 48 h
PC-3 = test system: PC-3
SF-268 = test system: SF-268
HOP-62 = test system: HOP-62
UACC-62 = test system: UACC-62
A498 = test system: A498
NCI/ADR-RES = test system: NCI/ADR-RES
BT-549 = test system: BT-549
COLO 205 = test system: COLO 205
M14 = test system: M14
K562 = test system: K562
ACHN = test system: ACHN
NCI-H226 = test system: NCI-H226
SW-620 = test system: SW-620
DU-145 = test system: DU-145
SNB-19 = test system: SNB-19
KM12 = test system: KM12
OVCAR-3 = test system: OVCAR-3
SK-MEL-28 = test system: SK-MEL-28
Hs-578T = test system: Hs-578T
A549 = test system: A549
SK-MEL-5 = test system: SK-MEL-5
HOP-92 = test system: HOP-92
SN12C = test system: SN12C
MOLT-4 = test system: MOLT-4
IGROV-1 = test system: IGROV-1
786-0 = test system: 786-0
UO-31 = test system: UO-31
Malme-3M = test system: Malme-3M
U-251 = test system: U-251
CAKI-1 = test system: CAKI-1
RXF 393 = test system: RXF 393
MDA-N = test system: MDA-N
HCT-15 = test system: HCT-15
MDA-MB-435 = test system: MDA-MB-435
SF-295 = test system: SF-295
HCT-116 = test system: HCT-116
LOX IMVI = test system: LOX IMVI
SK-MEL-2 = test system: SK-MEL-2
OVCAR-8 = test system: OVCAR-8
SNB-75 = test system: SNB-75
RPMI-8226 = test system: RPMI-8226
UACC-257 = test system: UACC-257
OVCAR-4 = test system: OVCAR-4
SK-OV-3 = test system: SK-OV-3
T47D = test system: T47D
SF-539 = test system: SF-539
NCI-H23 = test system: NCI-H23
CCRF-CEM = test system: CCRF-CEM
HCC 2998 = test system: HCC 2998
TK-10 = test system: TK-10
OVCAR-5 = test system: OVCAR-5
EKVX = test system: EKVX
NCI-H460 = test system: NCI-H460
NCI-H522 = test system: NCI-H522
MDA-MB-231 = test system: MDA-MB-231
HT-29 = test system: HT-29
HL-60 = test system: HL-60
MCF7 = test system: MCF7
SR = test system: SR

For `C#C[C@@H](OC(=O)c1ccc([N+](=O)[O-])cc1)[C@@H]1C[C@H]2O[C@@H]([C@H](C/C=C/CC)OC(=O)c3ccc([N+](=O)[O-])cc3)C[C@H]2O1`, the GI50 (PC-3) was > 100 µM (inactive), the GI50 (SF-268) was > 100 µM (inactive) and the GI50 (HOP-62) was > 100 µM (inactive). For the same compound, the GI50 (UACC-62) was > 100 µM (inactive), the GI50 (A498) was > 100 µM (inactive) and the GI50 (NCI/ADR-RES) was > 100 µM (inactive). The GI50 (BT-549) was > 100 µM (inactive), the GI50 (COLO 205) was > 100 µM (inactive) and the GI50 (M14) was > 100 µM (inactive). For the same compound, the GI50 (K562) was > 100 µM (inactive), the GI50 (ACHN) was > 100 µM (inactive) and the GI50 (NCI-H226) was > 100 µM (inactive). For the same compound, the GI50 (SW-620) was > 100 µM (inactive), the GI50 (DU-145) was > 100 µM (inactive) and the GI50 (SNB-19) was > 100 µM (inactive). The GI50 (KM12) was > 100 µM (inactive), the GI50 (OVCAR-3) was > 100 µM (inactive) and the GI50 (SK-MEL-28) was > 100 µM (inactive). For the same compound, the GI50 (Hs-578T) was > 100 µM (inactive), the GI50 (A549) was > 100 µM (inactive) and the GI50 (SK-MEL-5) was > 100 µM (inactive). For the same compound, the GI50 (HOP-92) was > 100 µM (inactive), the GI50 (SN12C) was > 100 µM (inactive) and the GI50 (MOLT-4) was > 100 µM (inactive). The GI50 (IGROV-1) was 83.4 µM (inactive), the GI50 (786-0) was > 100 µM (inactive) and the GI50 (UO-31) was > 100 µM (inactive). The GI50 (Malme-3M) was > 100 µM (inactive), the GI50 (U-251) was > 100 µM (inactive) and the GI50 (CAKI-1) was > 100 µM (inactive). For the same compound, the GI50 (RXF 393) was > 100 µM (inactive), the GI50 (MDA-N) was > 100 µM (inactive) and the GI50 (HCT-15) was greater than 100 µM. The GI50 (MDA-MB-435) was > 100 µM (inactive), the GI50 (SF-295) was > 100 µM (inactive) and the GI50 (HCT-116) was > 100 µM (inactive). The GI50 (LOX IMVI) was > 100 µM (inactive), the GI50 (SK-MEL-2) was > 100 µM (inactive) and the GI50 (OVCAR-8) was > 100 µM (inactive). The GI50 (SNB-75) was > 100 µM (inactive), the GI50 (RPMI-8226) was > 100 µM (inactive) and the GI50 (UACC-257) was > 100 µM (inactive). For the same compound, the GI50 (OVCAR-4) was > 100 µM (inactive), the GI50 (SK-OV-3) was > 100 µM (inactive) and the GI50 (T47D) was > 100 µM (inactive). The GI50 (SF-539) was > 100 µM (inactive), the GI50 (NCI-H23) was > 100 µM (inactive) and the GI50 (CCRF-CEM) was > 100 µM (inactive). For the same compound, the GI50 (HCC 2998) was > 100 µM (inactive), the GI50 (TK-10) was > 100 µM (inactive) and the GI50 (OVCAR-5) was > 100 µM (inactive). The GI50 (EKVX) was > 100 µM (inactive), the GI50 (NCI-H460) was > 100 µM (inactive) and the GI50 (NCI-H522) was 32.6 µM (inactive). The GI50 (MDA-MB-231) was > 100 µM (inactive) and the GI50 (HT-29) was > 100 µM (inactive).
In the case of `Cc1cc2c(cc1C)C(=O)/C(=C/c1ccccc1C(=O)O)C2`, the GI50 (PC-3) is reported as 33.9 µM (inactive), the GI50 (SF-268) is reported as 31.8 µM (inactive) and the GI50 (HOP-62) is reported as 42.4 µM (inactive). The GI50 (UACC-62) was 54.7 µM (inactive), the GI50 (A498) was 31.8 µM (inactive) and the GI50 (NCI/ADR-RES) was 54.8 µM (inactive). For the same compound, the GI50 (BT-549) was 25.6 µM (inactive), the GI50 (COLO 205) was 19.5 µM (inactive) and the GI50 (M14) was > 100 µM (inactive). The GI50 (K562) was 37.2 µM (inactive), the GI50 (HL-60) was 30.5 µM (inactive) and the GI50 (ACHN) was 55 µM (inactive). The GI50 (NCI-H226) was 15.3 µM (inactive), the GI50 (SW-620) was 46.8 µM (inactive) and the GI50 (DU-145) was > 100 µM (inactive). The GI50 (SNB-19) was 34.7 µM (inactive), the GI50 (KM12) was 55.5 µM (inactive) and the GI50 (MCF7) was 50 µM (inactive). The GI50 (OVCAR-3) was 31.7 µM (inactive), the GI50 (SK-MEL-28) was 64.4 µM (inactive) and the GI50 (Hs-578T) was 34 µM (inactive). The GI50 (A549) was 67.5 µM (inactive), the GI50 (SK-MEL-5) was 47.6 µM (inactive) and the GI50 (HOP-92) was 33.3 µM (inactive). For the same compound, the GI50 (SN12C) was 45.2 µM (inactive), the GI50 (MOLT-4) was 25.4 µM (inactive) and the GI50 (IGROV-1) was > 100 µM (inactive). The GI50 (786-0) was 40.3 µM (inactive), the GI50 (UO-31) was 50.6 µM (inactive) and the GI50 (Malme-3M) was 47.8 µM (inactive). For the same compound, the GI50 (U-251) was 22.9 µM (inactive), the GI50 (CAKI-1) was 72.4 µM (inactive) and the GI50 (RXF 393) was > 100 µM (inactive). For the same compound, the GI50 (MDA-N) was 47.8 µM (inactive), the GI50 (HCT-15) was 36.6 µM and the GI50 (MDA-MB-435) was 34.8 µM (inactive). The GI50 (SF-295) was 32.5 µM (inactive), the GI50 (HCT-116) was 37.9 µM (inactive) and the GI50 (LOX IMVI) was 25.9 µM (inactive). For the same compound, the GI50 (SK-MEL-2) was 35.4 µM (inactive), the GI50 (OVCAR-8) was 38.4 µM (inactive) and the GI50 (SNB-75) was 30 µM (inactive). The GI50 (RPMI-8226) was 24.3 µM (inactive), the GI50 (UACC-257) was > 100 µM (inactive) and the GI50 (OVCAR-4) was 35 µM (inactive). The GI50 (T47D) was 47.8 µM (inactive), the GI50 (SF-539) was 18.7 µM (inactive) and the GI50 (NCI-H23) was 19.6 µM (inactive). The GI50 (CCRF-CEM) was 30.9 µM (inactive), the GI50 (HCC 2998) was 27.4 µM (inactive) and the GI50 (SR) was 21.2 µM (inactive). For the same compound, the GI50 (TK-10) was > 100 µM (inactive), the GI50 (OVCAR-5) was 23.6 µM (inactive) and the GI50 (EKVX) was 50.7 µM (inactive). The GI50 (NCI-H460) was 40.5 µM (inactive), the GI50 (NCI-H522) was 65.6 µM (inactive) and the GI50 (HT-29) was 39.1 µM (inactive).
For `C(=C\N1CCCCC1)/c1nnnn1-c1ccccc1`, the GI50 (PC-3) was 27.7 µM (inactive), the GI50 (SF-268) was 27 µM (inactive) and the GI50 (HOP-62) was 54 µM (inactive). For the same compound, the GI50 (UACC-62) was 15.6 µM (inactive), the GI50 (A498) was 54.1 µM (inactive) and the GI50 (NCI/ADR-RES) was 20.5 µM (inactive). The GI50 (BT-549) was 33 µM (inactive), the GI50 (COLO 205) was > 100 µM (inactive) and the GI50 (M14) was 14.1 µM (inactive). The GI50 (K562) was 30.7 µM (inactive), the GI50 (HL-60) was 15.8 µM (inactive) and the GI50 (ACHN) was 37.9 µM (inactive). The GI50 (NCI-H226) was 37.2 µM (inactive), the GI50 (SW-620) was 34.8 µM (inactive) and the GI50 (DU-145) was > 100 µM (inactive). For the same compound, the GI50 (SNB-19) was 32.6 µM (inactive), the GI50 (KM12) was 56.8 µM (inactive) and the GI50 (OVCAR-3) was 30.5 µM (inactive). The GI50 (SK-MEL-28) was 44.7 µM (inactive), the GI50 (Hs-578T) was 17 µM (inactive) and the GI50 (A549) was > 100 µM (inactive). For the same compound, the GI50 (SK-MEL-5) was 23.3 µM (inactive), the GI50 (HOP-92) was 66.1 µM (inactive) and the GI50 (SN12C) was 26.2 µM (inactive). For the same compound, the GI50 (MOLT-4) was 17.4 µM (inactive), the GI50 (IGROV-1) was 27.7 µM (inactive) and the GI50 (786-0) was 43.8 µM (inactive). The GI50 (UO-31) was 30 µM (inactive), the GI50 (Malme-3M) was 55.5 µM (inactive) and the GI50 (U-251) was 21.1 µM (inactive). The GI50 (CAKI-1) was 12.4 µM (inactive), the GI50 (RXF 393) was 13.9 µM (inactive) and the GI50 (MDA-N) was 32.3 µM (inactive). The GI50 (HCT-15) was 23.6 µM, the GI50 (MDA-MB-435) was 22.2 µM (inactive) and the GI50 (SF-295) was 21.9 µM (inactive). The GI50 (HCT-116) was 25.4 µM (inactive), the GI50 (LOX IMVI) was 17.6 µM (inactive) and the GI50 (OVCAR-8) was 26.4 µM (inactive). For the same compound, the GI50 (SNB-75) was 19.6 µM (inactive), the GI50 (RPMI-8226) was 21.1 µM (inactive) and the GI50 (UACC-257) was 56.2 µM (inactive). For the same compound, the GI50 (OVCAR-4) was 33.4 µM (inactive), the GI50 (SK-OV-3) was 25.6 µM (inactive) and the GI50 (T47D) was 13.5 µM (inactive). The GI50 (SF-539) was 25.3 µM (inactive), the GI50 (NCI-H23) was 25.2 µM (inactive) and the GI50 (CCRF-CEM) was 19.6 µM (inactive). The GI50 (HCC 2998) was 90.6 µM (inactive), the GI50 (SR) was 23.4 µM (inactive) and the GI50 (TK-10) was 43.1 µM (inactive). For the same compound, the GI50 (OVCAR-5) was 42.1 µM (inactive), the GI50 (EKVX) was 23.5 µM (inactive) and the GI50 (NCI-H460) was 73.8 µM (inactive). The GI50 (NCI-H522) was 47 µM (inactive), the GI50 (MDA-MB-231) was 20.8 µM (inactive) and the GI50 (HT-29) was 84.5 µM (inactive).
